These results are taken from patent US8071652B2, “Method of treating irritable bowel syndrome” (The Board of Regents of the University of Texas System, priority 2003, dated 2011).

One assay relates to sensitized rats. As to the kind of experiment: Colorectal distention (CRD) sensitivity in visceral sensitization model. In kind it is in vivo, rat. As for the experimental part:
New born rats were sensitized by infusion of 0.2 mls of 0.5% acetic acid into the colon at P10, control animals received saline.
At eight weeks of age, rats in four treatment groups: control+vehicle (n=3), control+cni-1493 (n=3), sensitized+vehicle (n=8), sensitized+cni-1493 (n=8) were tested after administration of drug (dissolved in 2.5% mannitol, injected i.p. at 5mg/kg for four days) for sensitivity to colorectal distention (CRD). Vehicle injected animals received 2.5% mannitol in water.
For electromyographic (EMG) measurements of visceromotor responses, under anesthesia (Nembutal, 50 mg/kg i.p.), two electrodes were implanted in the abdominal wall muscles and externalized behind the head. Rats were allowed a one week recovery time from this surgery. Under mild sedation (Brevital, […]), a 7 cm flexible balloon constructed from a surgical glove finger attached to tygon tubing was inserted into the descending colon and rectum via the anus and held in place by taping the tubing to the tail. Rats were housed in small Lucite cubicles (20×8×8 cm) and were allowed to adapt for one hour. CRD was performed by rapidly inflating the balloon to constant pressure. Pressure was measured using a sphygmomanometer connected to a pressure transducer. Rats were given graded CRD (20, 40, 60, 80 mm Hg) applied for 20 seconds every 4 minutes. […]

The subject of another assay is Myeloperoxidase (MPO). In words: Myeloperoxidase (MPO) assay of colon extracts. The conditions noted are these: sensitized rats, 5 mg/kg i.p. for four days. The format is in vivo, rat. As for the experimental part: Descending colons were placed in 10% buffered formalin and portions were frozen for myeloperoxidase (MPO) assays. Haematoxilin & Eosin stained parafin sections will be scored for inflammation by a pathologist.
Myeloperoxidase (MPO) assays were performed as described (Bhatia et al., Proc Natl Acad Sci USA 95:4760-4756, 1998). Frozen colon was homogenized in 20 mM phosphate buffer pH 7.4 and cetrifuged at 10,000× g for 10 minutes at 4° C. Pellet was resuspended in 50 mM phosphate buffer, pH 6.0 containing 0.5% hexadecyltrimethylammonium bromide. Samples were subjected to one cycle of freeze thawing, were incubated at 6° C. for 2 hrs and cetrifuged at 10,000× g for 5 min at 4° C. Change in absorbance at 655 nm was measured in reaction mix containing 1.6 mM TMB (Sigma) and 0.3 mM H2O2 on a Beckman DU-64 spectrophotometer. Activity was normalized to protein as measured in the extracts. Protein was measured by the BCA method (Pierce, Rockford, Ill.). Activity was expressed as the change in absorbance/min/mg protein.

“Also recorded” adds a separate entry of the source.

In the case of `CC(=NN=C(N)N)c1cc(NC(=O)CCCCCCCCC(=O)Nc2cc(C(C)=NN=C(N)N)cc(C(C)=NN=C(N)N)c2)cc(C(C)=NN=C(N)N)c1.Cl.Cl.Cl.Cl` [CNI-1493, N,N′-bis[3,5-diacetylphenl] decanediamidetetrakis[amidinohydrazone] tetrahvdrochloride], the “Chronic visceral hypersensitivity (CVH)” value in the assay on sensitized rats (sensitized animals, CNI1493 treatment) is recorded as “ameliorates CVH”. Besides, in the assay with sensitized rats (sensitized rats, 5 mg/kg i.p. for four days, graded CRD, vs vehicle, 5 mg/kg), the “Sensitivity to CRD” value was “significant effect; also recorded: significantly reduced”. Further, the “MPO activity in colon” value with Myeloperoxidase (MPO) is “significantly lowered”.
